{"source": "patent US10260079B2", "about": "“Method for producing ergothioneine by using soybean cake powder as nitrogen source in a seed medium” (TIANJIN INSTITUTE OF INDUSTRIAL BIOTECHNOLOGY, CHINESE …, priority 2014, dated 2019)", "system": "Pleurotus ostreatus mycelia CGMCC No. 6232", "test": "Shake-flask fermentation, total content of ergothioneine in the fermentation broth by HPLC", "format": "cell-based", "note": "Where “and” joins values, the source holds several entries; their conditions need not be identical. Identical values can stand only once. Like-named read-outs stand apart in the source and are kept apart here.", "data": [{"smiles": "Nc1nc2ncc(CNc3ccc(C(=O)N[C@@H](CCC(=O)O)C(=O)O)cc3)nc2c(=O)[nH]1", "note": "[folic acid]", "values": [{"measurement": "activation at 640 µg/mL", "setting": "Pleurotus ostreatus, CGMCC6232, 360 h, folic acid 0.64 g/L, read-out: content of ergothioneine improved compared with control group", "result": 25, "unit": "%"}, {"measurement": "Content of ergothioneine in fermentation broth", "setting": "folic acid 0.08 g/L added in fermentation medium", "result": "121.4 ± 1.36", "unit": "mg/L"}, {"measurement": "Content of ergothioneine in fermentation broth", "setting": "folic acid 0.16 g/L added in fermentation medium", "result": "127.1 ± 2.24", "unit": "mg/L"}, {"measurement": "Content of ergothioneine in fermentation broth", "setting": "folic acid 0.32 g/L added in fermentation medium", "result": "136.9 ± 4.14", "unit": "mg/L"}, {"measurement": "Content of ergothioneine in fermentation broth", "setting": "folic acid 0.64 g/L added in fermentation medium", "result": "148.6 mg/L and 148.6 ± 1.54 mg/L"}, {"measurement": "Content of ergothioneine in fermentation broth", "setting": "folic acid 1.28 g/L added in fermentation medium", "result": "143.8 ± 1.77", "unit": "mg/L"}, {"measurement": "Content of ergothioneine in fermentation broth", "setting": "folic acid 2.56 g/L added in fermentation medium", "result": "122.2 ± 3.03", "unit": "mg/L"}]}, {"smiles": "N[C@@H](CCC(=O)O)C(=O)O", "note": "[glutamic acid]", "values": [{"measurement": "activation at 10 µM", "setting": "Pleurotus ostreatus, CGMCC6232, 360 h, glutamic acid 10 μmol/L, read-out: content of ergothioneine improved compared with control group", "result": 9.1, "unit": "%"}, {"measurement": "Content of ergothioneine in fermentation broth", "setting": "glutamic acid 1 μmol/L added in fermentation medium", "result": "123.6 ± 0.92", "unit": "mg/L"}, {"measurement": "Content of ergothioneine in fermentation broth", "setting": "glutamic acid 5 μmol/L added in fermentation medium", "result": "128.8 ± 1.19", "unit": "mg/L"}, {"measurement": "Content of ergothioneine in fermentation broth", "setting": "glutamic acid 10 μmol/L added in fermentation medium", "result": "131.2 mg/L and 131.2 ± 2.62 mg/L"}, {"measurement": "Content of ergothioneine in fermentation broth", "setting": "glutamic acid 50 μmol/L added in fermentation medium", "result": "124 ± 1.72", "unit": "mg/L"}, {"measurement": "Content of ergothioneine in fermentation broth", "setting": "glutamic acid 100 μmol/L added in fermentation medium", "result": "122.7 ± 1.63", "unit": "mg/L"}]}, {"smiles": "OCC(O)CO", "note": "[glycerol]", "values": [{"measurement": "activation at 75000 µg/mL", "setting": "Pleurotus ostreatus, CGMCC6232, 360 h, glycerol 75 g/L vs 50 g/L, casein peptone 50 g/L, read-out: content of ergothioneine improved compared with control group", "result": 8.5, "unit": "%"}, {"measurement": "Content of ergothioneine in fermentation broth", "setting": "glycerol 65 g/L, casein peptone 50 g/L in fermentation medium (control glycerol 50 g/L)", "result": "162.4 ± 2.67", "unit": "mg/L"}, {"measurement": "Content of ergothioneine in fermentation broth", "setting": "glycerol 75 g/L, casein peptone 50 g/L in fermentation medium (control glycerol 50 g/L)", "result": "170.2 mg/L and 170.2 ± 3.49 mg/L"}, {"measurement": "Content of ergothioneine in fermentation broth", "setting": "glycerol 85 g/L, casein peptone 50 g/L in fermentation medium (control glycerol 50 g/L)", "result": "164.8 ± 3.41", "unit": "mg/L"}, {"measurement": "Content of ergothioneine in fermentation broth", "setting": "glycerol 95 g/L, casein peptone 50 g/L in fermentation medium (control glycerol 50 g/L)", "result": "160.1 ± 1.15", "unit": "mg/L"}]}, {"smiles": "N[C@@H](Cc1c[nH]cn1)C(=O)O", "note": "[histidine]", "values": [{"measurement": "activation at 1000 µM", "setting": "Pleurotus ostreatus, CGMCC6232, 360 h, histidine 1 mmol/L, read-out: content of ergothioneine improved compared with control group", "result": 7.7, "unit": "%"}]}, {"smiles": "O=C(O)CCCc1c[nH]c2ccccc12", "note": "[indolebutyric acid]", "values": [{"measurement": "Content of ergothioneine in fermentation broth", "setting": "indolebutyric acid 0.1 mg/L added in fermentation medium", "result": "130.9 ± 2.23", "unit": "mg/L"}, {"measurement": "Content of ergothioneine in fermentation broth", "setting": "indolebutyric acid 0.5 mg/L added in fermentation medium", "result": "138.4 ± 1.29", "unit": "mg/L"}, {"measurement": "content of ergothioneine improved compared with control group", "setting": "indolebutyric acid 1 mg/L", "result": 9.33, "unit": "%"}, {"measurement": "Content of ergothioneine in fermentation broth", "setting": "indolebutyric acid 1 mg/L added in fermentation medium", "result": "140.6 mg/L and 140.6 ± 3.09 mg/L"}, {"measurement": "Content of ergothioneine in fermentation broth", "setting": "indolebutyric acid 2 mg/L added in fermentation medium", "result": "137.7 ± 1.84", "unit": "mg/L"}, {"measurement": "Content of ergothioneine in fermentation broth", "setting": "indolebutyric acid 4 mg/L added in fermentation medium", "result": "132.8 ± 0.93", "unit": "mg/L"}]}, {"smiles": "CC(C)C[C@H](N)C(=O)O", "note": "[leucine]", "values": [{"measurement": "activation at 100 µg/mL", "setting": "Pleurotus ostreatus, CGMCC6232, 360 h, leucine 0.1 g/L, read-out: content of ergothioneine improved compared with control group", "result": 11.9, "unit": "%"}, {"measurement": "Content of ergothioneine in fermentation broth", "setting": "leucine 0.02 g/L added in fermentation medium", "result": "127 ± 1.23", "unit": "mg/L"}, {"measurement": "Content of ergothioneine in fermentation broth", "setting": "leucine 0.05 g/L added in fermentation medium", "result": "129.4 ± 2.17", "unit": "mg/L"}, {"measurement": "Content of ergothioneine in fermentation broth", "setting": "leucine 0.1 g/L added in fermentation medium", "result": "133.3 mg/L and 133.3 ± 2.5 mg/L"}, {"measurement": "Content of ergothioneine in fermentation broth", "setting": "leucine 0.25 g/L added in fermentation medium", "result": "130.8 ± 2.46", "unit": "mg/L"}, {"measurement": "Content of ergothioneine in fermentation broth", "setting": "leucine 0.5 g/L added in fermentation medium", "result": "125.5 ± 1.36", "unit": "mg/L"}]}, {"smiles": "NCCCC[C@H](N)C(=O)O", "note": "[lysine]", "values": [{"measurement": "Content of ergothioneine in fermentation broth", "result": "124.8 ± 0.72 mg/L and 125.6 ± 2.03 mg/L and 128.9 ± 2.12 mg/L and 133.7 ± 1.51 mg/L and 135.1 ± 0.66 mg/L and 126.3 ± 2.67 mg/L"}, {"measurement": "activation at 5000 µg/mL", "setting": "Pleurotus ostreatus, CGMCC6232, 360 h, read-out: content of ergothioneine improved compared with control group", "result": 13.4, "unit": "%"}]}, {"smiles": "CSCC[C@H](N)C(=O)O", "note": "[methionine]", "values": [{"measurement": "activation at 15000 µM", "setting": "Pleurotus ostreatus, CGMCC6232, 360 h, methionine 15 mmol/L added on the 4th day, read-out: content of ergothioneine improved compared with control group", "result": 63.1, "unit": "%"}, {"measurement": "activation at 15000 µM", "setting": "Pleurotus ostreatus, CGMCC6232, 360 h, methionine 15 mmol/L, read-out: content of ergothioneine improved compared with control group", "result": 49.4, "unit": "%"}, {"measurement": "Content of ergothioneine in fermentation broth", "setting": "methionine 3 mmol/L added in fermentation medium", "result": "127.3 ± 3.47", "unit": "mg/L"}, {"measurement": "Content of ergothioneine in fermentation broth", "setting": "methionine 9 mmol/L added in fermentation medium", "result": "154.8 ± 3.31", "unit": "mg/L"}, {"measurement": "Content of ergothioneine in fermentation broth", "setting": "methionine 15 mmol/L added in fermentation medium", "result": "179.6 mg/L and 179.6 ± 4.17 mg/L"}, {"measurement": "Content of ergothioneine in fermentation broth", "setting": "methionine 15 mmol/L, timing for adding 0 d (before the fermentation)", "result": "179.3 ± 4.23", "unit": "mg/L"}, {"measurement": "Content of ergothioneine in fermentation broth", "setting": "methionine 15 mmol/L, timing for adding 2 d", "result": "190.5 ± 2.84", "unit": "mg/L"}, {"measurement": "Content of ergothioneine in fermentation broth", "setting": "methionine 15 mmol/L, timing for adding 4 d", "result": "202.6 mg/L and 202.6 ± 5.01 mg/L"}, {"measurement": "Content of ergothioneine in fermentation broth", "setting": "methionine 15 mmol/L, timing for adding 6 d", "result": "174.9 ± 3.73", "unit": "mg/L"}, {"measurement": "Content of ergothioneine in fermentation broth", "setting": "methionine 15 mmol/L, timing for adding 8 d", "result": "160.3 ± 5.29", "unit": "mg/L"}, {"measurement": "Content of ergothioneine in fermentation broth", "setting": "methionine 15 mmol/L, timing for adding 10 d", "result": "149.3 ± 3.27", "unit": "mg/L"}, {"measurement": "Content of ergothioneine in fermentation broth", "setting": "methionine 25 mmol/L added in fermentation medium", "result": "168.5 ± 4.53", "unit": "mg/L"}, {"measurement": "Content of ergothioneine in fermentation broth", "setting": "methionine 35 mmol/L added in fermentation medium", "result": "153.7 ± 3.2", "unit": "mg/L"}, {"measurement": "Content of ergothioneine in fermentation broth", "setting": "methionine 45 mmol/L added in fermentation medium", "result": "126.9 ± 2.81", "unit": "mg/L"}]}]}
